Values belong to the molecule of their own block, whether it stands above or below them.
What was measured:
[1] = test system: mushroom-derived tyrosinase; test: Mushroom tyrosinase inhibition test; assay type: biochemical; conditions: L-tyrosine substrate, 37° C. 30 minutes
Description: After reaction, the absorbance (OD) at a wavelength of 490 nm was measured and the degree of inhibition of tyrosinase reaction was determined according to the following equation. […] Sample: The buffer, the enzyme solution, the substrate solution and the sample solution Sample-free: The buffer, the enzyme solution and the substrate solution Blank: The buffer and the enzyme solution

[2] = test system: B16 melanoma cells; test: Combination test with existing tyrosinase inhibitors (method of Test Example 1); assay type: cell-based; conditions: alone
Description: B16 melanoma cells were suspended (10,000 cells/ml) in DMEM (Dulbecco's modified eagle medium) containing 10% FBS (fetal bovine serum) and 8 ml of the suspension was added to a cell culture bottle with a 25 cm^2 bottom surface area, and cultured at 37° C. in the presence of 5% carbon dioxide for 3 days. After 3 days of culture, the old medium was exchanged with 8 ml of fresh medium. 40 micro-liters of a sample solution, in which compounds of the present invention had been dissolved in ethanol to give a final concentration shown in the table, were further added thereto. As the control, ethanol only was added. After the medium change, the cells were further cultured for 3 days under the same conditions. […] Degree of cell proliferation (%)=(number of cells in sample)/(number of cells in control)×100 […] Using a calibration curve of synthetic melanin, the amount of melanin/million cells was determined from the OD and the degree of inhibition of melanin production was determined according to the following equation: Degree of inhibition of melanin (%)=(amount of melanin in control−amount of melanin in sample)/(amount of melanin in control)×100 […]

[3] = target: T1, tyrosinase in B16 melanoma cells (Mus musculus, UniProt P11344); test: Test of tyrosinase inhibition in B16 melanoma cells (crude enzyme solution); assay type: biochemical; conditions: L-DOPA substrate, 37° C. 3 hours; for Degree of inhibition of tyrosinase in B16 melanoma cells: 25 ppm
T1 construct: the resulting supernatant was used as a crude enzyme solution; endogenous in cells; host or cells: B16 melanoma cells (Triton X100 lysate, sonicated, 11,000 G supernatant)
T1 sequence (P11344 19-533): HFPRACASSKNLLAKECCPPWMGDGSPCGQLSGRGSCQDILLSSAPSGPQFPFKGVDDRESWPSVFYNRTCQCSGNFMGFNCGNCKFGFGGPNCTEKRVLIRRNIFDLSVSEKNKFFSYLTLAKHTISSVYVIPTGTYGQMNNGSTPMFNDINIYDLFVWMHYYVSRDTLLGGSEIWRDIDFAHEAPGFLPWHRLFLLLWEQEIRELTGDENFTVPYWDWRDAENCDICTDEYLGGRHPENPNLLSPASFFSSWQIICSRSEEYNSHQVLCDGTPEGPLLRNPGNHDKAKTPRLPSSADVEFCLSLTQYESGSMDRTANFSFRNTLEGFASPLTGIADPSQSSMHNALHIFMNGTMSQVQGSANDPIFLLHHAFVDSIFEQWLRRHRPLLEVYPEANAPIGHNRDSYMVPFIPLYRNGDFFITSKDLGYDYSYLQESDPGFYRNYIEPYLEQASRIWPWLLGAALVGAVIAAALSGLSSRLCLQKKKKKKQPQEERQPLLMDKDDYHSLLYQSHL
Description: B16 melanoma cells were cultured for 3 days in DMEM containing 10% FBS at 37° C. in the presence of 5% carbon dioxide. The cells proliferated after culture were recovered by treatment with trypsin, then suspended in PBS containing 0.1% Triton X100 at a density of ten million cells/ml and disrupted by sonication. The product obtained was centrifuged at 11,000 G for 20 minutes, and the resulting supernatant was used as a crude enzyme solution. Added thereto was 0.2 ml of crude enzyme solution. The mixture was preliminarily kept at 37° C. for 5 minutes, and 0.2 ml L-DOPA solution (0.5 mg/ml) was added as the substrate, and the mixture was kept at 37° C. for 3 hours.

[4] = test system: B16 melanoma cells; test: Melanin formation prevention test (melanin production and cell proliferation); assay type: cell-based; conditions: for Degree of cell proliferation: relative to ethanol control
Description: B16 melanoma cells were suspended (10,000 cells/ml) in DMEM (Dulbecco's modified eagle medium) containing 10% FBS (fetal bovine serum) and 8 ml of the suspension was added to a cell culture bottle with a 25 cm^2 bottom surface area, and cultured at 37° C. in the presence of 5% carbon dioxide for 3 days. After 3 days of culture, the old medium was exchanged with 8 ml of fresh medium. 40 micro-liters of a sample solution, in which compounds of the present invention had been dissolved in ethanol to give a final concentration shown in the table, were further added thereto. As the control, ethanol only was added. After the medium change, the cells were further cultured for 3 days under the same conditions. After culture was finished, the medium was removed, and the cells were recovered by treatment with trypsin (DIFCO) and suspended in 4 ml of phosphate buffered saline (PBS) and a predetermined amount ( 1/40) of this suspension was used to measure the number of cells in a Coultar counter (Sysmex Co.) to determine the degree of cell proliferation.
The degree of cell proliferation was determined according to the following equations:
Degree of cell proliferation (%)=(number of cells in sample)/(number of cells in control)×100
The remainder of the cell suspension was centrifuged and then washed with 5% trichloroacetic acid, then with ethanol/ethyl ether (3:1 by volume), and with ethyl ether and the cells were dried, and 2N—NaOH was added thereto to dissolve (melanin in) the cells under heating at 70° C. and measured for its optical density (OD) at 420 nm. Using a calibration curve of synthetic melanin, the amount of melanin/million cells was determined from the OD and the degree of inhibition of melanin production was determined according to the following equation:
Degree of inhibition of melanin (%)=(amount of melanin in control−amount of melanin in sample)/(amount of melanin in control)×100

[5] = test system: Human-derived normal skin fibroblasts (NB1RGB); test: Test of cell activating activity (fibroblast proliferation); assay type: cell-based; conditions: relative to ethanol control (100)
Description: Human-derived normal skin fibroblasts (NB1RGB: Institute of Physical and Chemical Research) were suspended into DMEM containing 10% FBS to give a concentration of 20,000 cells/ml, and 5 ml each of this cellular suspension was introduced into each of 25 cm^2 bottles, cultured at 37° C. in the presence of 5% carbon dioxide for 24 hours. To each bottle, was added 10 micro-liter (0.2%) of the ethanol solution containing the compound to give the final concentration shown in Table 8. The cells were cultured for an additional 3 days. After 3 days the old medium was discarded and 5 ml fresh medium was added, and the sample was further added thereto. After this exchange of the medium, the cells were further cultured for another 3 days. Then cells were removed with trypsin and the number of cells in each bottle was counted with a Coultar counter. Simultaneously, as the control, only ethanol was added and the NB1RGB cells were cultured and the number of cells were counted in the same manner. The number of cells in each bottle to which the sample had been added was determined as a relative value to the number (as 100) of cells in the control after cultured, and the results are shown in Table 8.

[6] = test system: Malassezia furfur IFO 0656; test: Anti-bacterial activity test, agar medium dilution method; assay type: cell-based; conditions: Mf-1
Description: (§1) The aerobic microorganisms were examined in an agar medium dilution method and the anaerobic microorganisms were examined in a liquid medium dilution method under anaerobic culture conditions. Muller Hinton agar medium (DIFCO) was heated and dissolved and 10 ml of the medium was introduced into each test tube, sterilized and used. The sample was prepared by dissolving in ethanol and the resulting ethanol solution was diluted 2-fold serially with ethanol, and 100 micro-liters of sample solution were added to 10 ml of each dissolved agar medium, then stirred, introduced into a Petri dish of 9 cm in diameter, and solidified at room temperature. Each test microorganism in a well grown slant was inoculated via one loop of platinum into 10 ml Muller Hinton broth (DIFCO) and cultured with shaking at 27° C. for 24 hours and used as a microbial fluid. This fluid was diluted at 10^8 CFU (Colony forming unit)/ml, and 5 micro-liters of the diluted fluid were inoculated onto the agar and cultured at 37° C. overnight. Inoculation of the microorganism was conducted using microplanter MIT-P for 27 tubes test microorganisms (Sakuma Seisakusho K. K.).

[7] = test system: Corynebacterium xerosis JCM 1324; test: as above; assay type: cell-based; conditions: Cx-2
Description: as §1

[8] = test system: Bacillus subtilis PCI 219 IFO 3134; test: as above; assay type: cell-based; conditions: Bs-1
Description: as §1

[9] = test system: Staphylococcus epidermidis JCM 2414; test: as above; assay type: cell-based; conditions: Se-1
Description: as §1

[10] = test system: Staphylococcus epidermidis var. H-6; test: as above; assay type: cell-based; conditions: Se-2
Description: as §1

[11] = test system: Corynebacterium minutissimum ATCC 23348; test: as above; assay type: cell-based; conditions: Cm-1
Description: as §1

[12] = test system: Staphylococcus aureus IFO 12732; test: as above; assay type: cell-based; conditions: Sa-3
Description: as §1

[13] = 0.4 ppm, Table 2, combined use with arbutin
[14] = 0.4 ppm, Table 4, combined use with ellagic acid

Degree of inhibition of mushroom tyrosinase ([1]; 100 ppm): 29%
inhibition at 100 ppm ([3]; 100 ppm, read-out: Degree of inhibition of tyrosinase in B16 melanoma cells): 35%
SMILES: OC[C@H]1O[C@@H](Oc2ccc(O)cc2)[C@H](O)[C@@H](O)[C@@H]1O [Arbutin, reference compound]
Degree of cell proliferation ([2]; 0.8 ppm, Table 2, combined use with arbutin): 89%
inhibition at 0.8 ppm ([2]; Mus musculus, B16, 0.8 ppm, Table 2, combined use with arbutin, read-out: Degree of melanin inhibition): 22%
Degree of cell proliferation ([4]; 6.3 ppm): 100%
inhibition at 6.3 ppm ([4]; Mus musculus, 72 h, 6.3 ppm, 3 days, read-out: Degree of melanin inhibition): 74%

SMILES: CCOC(=O)CC(C)CCC1=C(C)CCC2C(C)(C)CCCC12C (centres unmarked) [Compound 3, labd-8-en-15-oic acid ethyl ester]
Degree of cell proliferation of fibroblasts ([5]; 8.0 ppm): 134%
Degree of melanin inhibition ([4]; 6.3 ppm, 3 days): 74%
Degree of cell proliferation ([4]; 6.3 ppm): 115%

Degree of inhibition of mushroom tyrosinase ([1]; 25 ppm): 0%
Degree of inhibition of tyrosinase in B16 melanoma cells [3]: 0%
MIC [6]: 6.3 ppm
MIC [7]: 12.5 ppm
MIC [8]: 12.5 ppm
MIC [9]: 12.5 ppm
MIC [10]: 12.5 ppm
MIC [11]: 6.3 ppm
MIC [12]: 12.5 ppm
SMILES: CC1=CCC2C(C)(C)CCCC2(C)C1CCC(C)CC(=O)O (centres unmarked) [Compound 4, labd-7-en-15-oic acid]
Degree of cell proliferation [2, 13]: 115%
Degree of melanin inhibition [2, 13]: 28%
Degree of melanin inhibition ([4]; 6.3 ppm, 3 days): 87%
Degree of cell proliferation ([4]; 6.3 ppm): 109%

SMILES: CCOC(=O)CC(C)CCC1C(C)=CCC2C(C)(C)CCCC12C (centres unmarked) [Compound 6, labd-7-en-15-oic acid ethyl ester]
Degree of cell proliferation of fibroblasts ([5]; 8.0 ppm): 134%
Degree of melanin inhibition ([4]; 6.3 ppm, 3 days): 74%
Degree of cell proliferation ([4]; 6.3 ppm): 109%

Degree of inhibition of mushroom tyrosinase ([1]; 25 ppm): 0%
Degree of inhibition of tyrosinase in B16 melanoma cells [3]: 0%
MIC [6]: 6.3 ppm
MIC [7]: 12.5 ppm
MIC [8]: 12.5 ppm
MIC [9]: 6.3 ppm
MIC [10]: 6.3 ppm
MIC [11]: 12.5 ppm
MIC [12]: 12.5 ppm
SMILES: C=C1CCC2C(C)(C)CCCC2(C)C1CCC(C)CC(=O)O (centres unmarked) [Compound 7, labd-8(17)-en-15-oic acid]
Degree of cell proliferation of fibroblasts ([5]; 8.0 ppm): 128%
Degree of cell proliferation [2, 14]: 111%
Degree of melanin inhibition [2, 14]: 30%
Degree of melanin inhibition ([4]; 6.3 ppm, 3 days): 79%
Degree of cell proliferation ([4]; 6.3 ppm): 111%

SMILES: C=C1CCC2C(C)(C)CCCC2(C)C1CCC(C)CC(=O)OCC (centres unmarked) [Compound 9, labd-8(17)-en-15-oic acid ethyl ester]
Degree of cell proliferation of fibroblasts ([5]; 8.0 ppm): 127%
Degree of melanin inhibition ([4]; 6.3 ppm, 3 days): 61%
Degree of cell proliferation ([4]; 6.3 ppm): 103%

SMILES: O=c1oc2c(O)c(O)cc3c(=O)oc4c(O)c(O)cc1c4c23 [Ellagic acid, reference compound]
Degree of cell proliferation ([2]; 1.6 ppm, Table 4, combined use with ellagic acid): 98%
inhibition at 1.6 ppm ([2]; Mus musculus, B16, 1.6 ppm, Table 4, combined use with ellagic acid, read-out: Degree of melanin inhibition): 17%
Degree of cell proliferation ([4]; 3.1 ppm): 98%
inhibition at 3.1 ppm ([4]; Mus musculus, 72 h, 3.1 ppm, 3 days, read-out: Degree of melanin inhibition): 68%

SMILES: O=C(O)CO [Glycolic acid, reference compound]
Degree of cell proliferation of fibroblasts ([5]; 4.0 ppm): 120%

— patent publication US6384074B1, “Cell growth activating composition containing compound having labdane structure” (Takasago International Corporation, priority 1998, dated 2002)
